Test results as given in patent US11161856B2 (H. Lundbeck A/S, priority 2017, dated 2021).

Key:
ABHD6 = target: T1, ABHD6 (Mus musculus, UniProt Q8R2Y0); assay: In vitro competitive activity-based protein profiling, mouse brain proteome (ABHD6); type: biochemical; conditions: mouse brain proteome; concentration not given (μM)
T1 construct: Brain; from tissue; host or cells: mouse brain proteome
T1 sequence (Q8R2Y0 1-336): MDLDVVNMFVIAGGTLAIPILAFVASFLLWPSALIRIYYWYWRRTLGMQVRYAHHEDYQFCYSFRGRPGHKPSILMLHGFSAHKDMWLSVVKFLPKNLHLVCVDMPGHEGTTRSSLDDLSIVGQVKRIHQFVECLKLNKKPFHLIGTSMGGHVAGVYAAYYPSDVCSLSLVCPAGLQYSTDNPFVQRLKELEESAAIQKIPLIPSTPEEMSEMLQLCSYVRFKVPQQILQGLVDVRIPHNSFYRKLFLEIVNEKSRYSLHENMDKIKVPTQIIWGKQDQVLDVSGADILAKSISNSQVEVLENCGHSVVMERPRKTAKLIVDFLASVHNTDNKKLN
Procedure: [The source words this procedure for another target and reports this target under the same test.] In Vitro Competitive Activity-Based Protein Profiling.
Proteomes (human prefrontal cortex or cell membrane fractions) (50 μL, 1.0 mg/mL total protein concentration) were preincubated with varying concentrations of inhibitors at 37° C. After 30 min, FP-Rh or HT-01 (1.0 μL, 50 μM in DMSO) was added and the mixture was incubated for another 30 min at room temperature. Reactions were quenched with SDS loading buffer (15 μL-4×) and run on SDS-PAGE.

MGLL = target: T2, MGLL (Mus musculus, UniProt O35678); assay: In vitro competitive activity-based protein profiling, mouse brain proteome (MGLL); type: biochemical; conditions: concentration not given (μM)
T2 construct: Brain; from tissue; host or cells: mouse brain proteome
T2 sequence (O35678 1-303): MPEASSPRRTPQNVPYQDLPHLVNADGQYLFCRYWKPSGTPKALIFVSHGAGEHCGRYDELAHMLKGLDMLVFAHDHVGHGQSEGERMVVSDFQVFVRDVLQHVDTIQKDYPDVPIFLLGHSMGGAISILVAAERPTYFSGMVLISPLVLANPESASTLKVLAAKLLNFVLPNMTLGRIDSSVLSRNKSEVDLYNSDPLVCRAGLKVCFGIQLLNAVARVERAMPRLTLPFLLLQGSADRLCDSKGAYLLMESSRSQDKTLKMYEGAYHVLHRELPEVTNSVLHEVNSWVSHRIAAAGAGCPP

Row | Compound | % Inh ABHD6 Brain (Mouse, μM) (ABHD6) | % Inh MGLL Brain (Mouse, μM) (MGLL)
1 | CN1CC2(CCN(c3cc(C(F)(F)F)ccc3CN3CCN(C(=O)OC(C(F)(F)F)C(F)(F)F)CC3)C2)C1 [Example 179, 1,1,1,3,3,3-Hexafluoropropan-2-yl 4-(2-(2-methyl-2,6-diazaspiro[3,4]octan-6-yl)-4-(trifluoromethyl)benzyl) piperazine-1-carboxylate] | # (# is ≤25%) | ### (### is ≥75%)
2 | O=C(OC(C(F)(F)F)C(F)(F)F)N1CCC2(CC1)CN(Cc1c(Cl)cccc1N1CC3COCC3C1)C2 (centres unmarked) [Example 57, 1,1,1,3,3,3-Hexafluoropropan-2-yl 2-(2-chloro-6-(tetrahydro-1H-furo[3,4-c]pyrrol-5(3H)-yl)benzyl)-2,7-diazaspiro[3.5]nonane-7-carboxylate] | ### (### is ≥75%) | ### (### is ≥75%)
3 | O=C(OC(C(F)(F)F)C(F)(F)F)N1CCC2(CC1)CN(Cc1c(N3CCC4(CCOCC4)C3)cccc1C(F)(F)F)C2 [Example 52, 1,1,1,3,3,3-Hexafluoropropan-2-yl 2-(2-(8-oxa-2-azaspiro[4.5]decan-2-yl)-6-(trifluoromethyl)benzyl)-2,7-diazaspiro[3.5]nonane-7-carboxylate] | ### (### is ≥75%) | ### (### is ≥75%)
4 | O=C(OC(C(F)(F)F)C(F)(F)F)N1CC2(CCN(Cc3ccc(Cl)cc3)CC2)C1 [Example 75, 1,1,1,3,3,3-Hexafluoropropan-2-yl 7-(4-chlorobenzyl)-2,7-diazaspiro[3.5]nonane-2-carboxylate] | ### (### is ≥75%) | ### (### is ≥75%)
5 | CC(=O)N1CC2CN(c3cc(Cl)ccc3CN3CCN(C(=O)OC(C(F)(F)F)C(F)(F)F)CC3)CC2C1 (centres unmarked) [Example 202, 1,1,1,3,3,3-Hexafluoropropan-2-yl 4-(2-(5-acetylhexahydropyrrolo[3,4-c]pyrrol-2(lH)-yl)-4-chlorobenzyl)piperazine-1 - carboxylate] | ## (## is between 25 and 75%) | ### (### is ≥75%)
6 | CC(=O)N1CC2(CCN(c3ccccc3CN3CCCCC34CN(C(=O)OC(C(F)(F)F)C(F)(F)F)C4)C2)C1 [Example 231, 1,1,1,3,3,3-Hexafluoropropan-2-yl 5-(2-(2-acetyl-2,6-diazaspiro[3.4]octan-6-yl)benzyl)-2,5-diazaspiro[3.5]nonane-2-carboxylate] | ## (## is between 25 and 75%) | ## (## is between 25 and 75%)
7 | O=C(OC(C(F)(F)F)C(F)(F)F)N1CCC2(CCN(Cc3ccc(C(F)(F)F)cc3N3CC4CCC(C3)O4)CC2)C1 [Example 190, 1,1,1,3,3,3-Hexafluoropropan-2-yl 8-(2-(8-oxa-3-azabicyclo[3.2.1]octan-3-yl)-4-(trifluoromethyl)benzyl)-2,8-diazaspiro[4.5]decane-2-carboxylate] | # (# is ≤25%) | ### (### is ≥75%)
8 | CN1CC2(CCN(c3cc(Cl)ccc3CN3CCN(C(=O)OC(C(F)(F)F)C(F)(F)F)CC3)C2)C1 [Example 169, 1,1,1,3,3,3-Hexafluoropropan-2-yl 4-(4-chloro-2-(2-methyl-2,6-diazaspiro[3.4]octan-6-yl)benzyl)piperazine-1-carboxylate] | # (# is ≤25%) | ### (### is ≥75%)
9 | Cc1cccc(CN2CC3(CCN(C(=O)OC(C(F)(F)F)C(F)(F)F)CC3)C2)c1 [Example 86, 1,1,1,3,3,3-Hexafluoropropan-2-yl 2-(3-methylbenzyl)-2,7-diazaspiro[3.5]nonane-7-carboxylate] | ### (### is ≥75%) | ### (### is ≥75%)
10 | CC(=O)N1CCC2(CC1)CCN(c1cc(Cl)cc(CN3CCCC34CN(C(=O)OC(C(F)(F)F)C(F)(F)F)C4)c1)C2 [Example 236, 1,1,1,3,3,3-Hexafluoroprupan-2-yl 5-(3-(8-acetyl-2,8-diazaspiro[4.5]decan-2-yl)-5-chlorobenzyl)-2,5-diazaspiro[3.4]octane-2-carboxylate] | ### (### is ≥75%) | ### (### is ≥75%)
11 | CN1CCC2(CCN(c3cc(Cl)ccc3CN3CCN(C(=O)OC(C(F)(F)F)C(F)(F)F)CC3)CC2)C1 [Example 177, 1,1,1,3,3,3-Hexafluoropropan-2-yl 4-(4-chloro-2-(2-methyl-2,8-diazaspiro[4.5]decan-8-yl)benzyl)piperazine-1-carboxylate] | # (# is ≤25%) | ### (### is ≥75%)
12 | Cc1cc(-c2ccccc2)ccc1CN1CC2(CCN(C(=O)OC(C(F)(F)F)C(F)(F)F)CC2)C1 [Example 68, 1,1,1,3,3,3-Hexafluoropropan-2-yl 2-((3-methyl-[1,1'-biphenyl]-4-yl)methyl)-2,7-diazaspiro[3,5]nonane-7-carboxylate] | ### (### is ≥75%) | ### (### is ≥75%)
13 | O=C(OC(C(F)(F)F)C(F)(F)F)N1CCC2(CC1)CN(Cc1ccc(Cl)cc1N1CCCC1)C2 [Example 34] | ### (### is ≥75%) | ### (### is ≥75%)
14 | CN(Cc1ccc(C(F)(F)F)cc1N1CCOCC1)C1(C)CCN(C(=O)OC(C(F)(F)F)C(F)(F)F)CC1 [Example 63, 1,1,1,3,3,3-Hexafluoropropan-2-yl 4-methyl-4-(methyl(2-morpholino-4-(trifluoromethyl)benzyl)amino) piperidine-1-carboxylate] | ### (### is ≥75%) | ### (### is ≥75%)
15 | O=C(OC(C(F)(F)F)C(F)(F)F)N1CCC2(CC1)CN(Cc1c(Cl)cccc1N1CCC3(CCOCC3)C1)C2 [Example 48, 1,1,1,3,3,3-Hexafluoropropan-2-yl 2-(2-chloro-6-(8-oxa-2-azaspiro[4.5]decan-2-yl)benzyl)-2,7-diazaspiro[3.5]nonane-7-carboxylate] | ### (### is ≥75%) | ### (### is ≥75%)
16 | CC(=O)N1CC2CN(c3cc(C(F)(F)F)ccc3CN3CCN(C(=O)OC(C(F)(F)F)C(F)(F)F)CC3)CC2C1 (stereo not drawn) [Example 200, 1,1,1,3,3,3-Hexafluoropropan-2-yl 4-(2-(5-acetylhexahydropyrrolo[3,4-c]pyrrol-2(lH)-yl)-4-(trifluoromethyl)benzyl)pipera zine-l-carboxylate] | # (# is ≤25%) | ### (### is ≥75%)
17 | O=C(OC(C(F)(F)F)C(F)(F)F)N1CC2(CCN(Cc3ccc(N4CCOCC4)cc3Cl)CC2)C1 [Example 70, 1,1,1,3,3,3-Hexafluoropropan-2-yl 7-(2-chloro-4-morpholinobenzyl)-2,7-diazaspiro[3.5]nonane-2-carboxylate] | ### (### is ≥75%) | ### (### is ≥75%)
18 | CS(=O)(=O)N1CCC2(CCN(c3cccc(C(F)(F)F)c3CN3CC4(CCN(C(=O)OC(C(F)(F)F)C(F)(F)F)CC4)C3)CC2)C1 [Example 62, 1,1,1,3,3,3-Hexafluoropropan-2-yl 2-(2-(2-(methylsulfonyl)-2,8-diazaspiro[4.5]decan-8-yl)-6-(trifluoromethyl)benzyl)-2,7-diazaspiro[3.5]nonane-7-carboxylate] | ### (### is ≥75%) | ### (### is ≥75%)
19 | CC(=O)N1CC2(CCN(c3ccccc3CN3CCN(C(=O)OC(C(F)(F)F)C(F)(F)F)CC3)C2)C1 [Example 168, 1,1,1,3,3,3-Hexafluoropropan-2-yl 4-(2-(2-acetyl-2,6-diazaspiro[3.4]octan-6-yl)benzyl)piperazine-1-carboxylate] | # (# is ≤25%) | ### (### is ≥75%)
20 | CC(=O)N1CC2(CCN(c3ccccc3CN3CCCCC34CCN(C(=O)OC(C(F)(F)F)C(F)(F)F)CC4)C2)C1 [Example 229, 1,1,1,3,3,3-Hexafluoropropan-2-yl 1-(2-(2-acetyl-2,6-diazaspiro[3,4]octan-6-yl)benzyl)-1,9-diazaspiro[5.5]undecane-9-carboxylate] | # (# is ≤25%) | ## (## is between 25 and 75%)
21 | CC(=O)N1CC2(CCN(c3cc(Cl)ccc3CN3CCN(C(=O)OC(C(F)(F)F)C(F)(F)F)CC3)CC2)C1 [Example 213, 1,1,1,3,3,3-Hexafluoropropan-2-yl 4-(2-(2-acetyl-2,7-diazaspiro[3.5]nonan-7-yl)-4-chlorobenzyl)piperazine-1-carboxylate] | ## (## is between 25 and 75%) | ### (### is ≥75%)
22 | Cc1ccccc1CN1CC2(CCN(C(=O)OC(C(F)(F)F)C(F)(F)F)CC2)C1 [Example 91, 1,1,1,3,3,3-Hexafluoropropan-2-yl 2-(2-methylbenzyl)-2,7-diazaspiro[3.5]nonane-7-carboxylate] | ### (### is ≥75%) | ### (### is ≥75%)
